Like-named read-outs stand apart in the source and are kept apart here.
How the values were obtained:
Assay type in all cases: in vivo
[1] = test system: windgrass (Apera spica-venti); test: Test B postemergence plant response; conditions: Apera spica-venti, post-emergence, 360 h; Postemergence, 125 g ai/ha; visual rating after 13 to 15 days, scale 0 (no effect) to 100 (complete control)
Summary of the method: (§1)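 Plants grown in peat/vermiculite medium were sprayed postemergence at 2–18 cm height (1- to 4-leaf stage). After 13–15 days in the greenhouse, response was rated visually against untreated controls on a 0–100 scale (0 no effect, 100 complete control).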

[2] = test system: canarygrass (Phalaris minor); test: Test B postemergence plant response; conditions: Postemergence
Summary of the method: as §1

[3] = test system: winter barley (Hordeum vulgare); test: Test B postemergence plant response; conditions: Postemergence
Summary of the method: as §1

[4] = test system: chickweed (Stellaria media); test: Test B postemergence plant response; conditions: Postemergence
Summary of the method: as §1

[5] = test system: lambsquarters (Chenopodium album); test: Test B pre-/postemergence plant response; conditions: for pest or weed control at 62 g/ha: 62 g ai/ha
Summary of the method: (§2)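 Pre-em in loam/sand; post-em at 1–4 leaf (2–18 cm) in peat mix. Solvent + surfactant formulation. Greenhouse 13–15 d; visual % control vs untreated, 0–100.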

[6] = test system: pigweed (Amaranthus retroflexus); test: Test B pre-/postemergence plant response
Summary of the method: as §2

[7] = test system: wheat (Triticum aestivum); test: Test B pre-/postemergence plant response
Summary of the method: as §2

[8] = test system: galium (catchweed bedstraw, Galium aparine); test: Test B pre-/postemergence plant response; conditions: Preemergence
Summary of the method: as §2

[9] = test system: sunflower (common oilseed sunflower, Helianthus annuus); test: Test B pre-/postemergence plant response; conditions: Preemergence
Summary of the method: as §2

[10] = test system: Italian ryegrass (Lolium multiflorum); test: Test B pre-/postemergence plant response
Summary of the method: as §2

[11] = test system: nightshade (eastern black nightshade, Solanum ptycanthum); test: Test B pre-/postemergence plant response; conditions: Preemergence
Summary of the method: as §2

[12] = test system: bermudagrass (Cynodon dactylon); test: Test B pre-/postemergence plant response; conditions: for pest or weed control at 31 g/ha: 31 g ai/ha, scale 0 to 100 (0 no effect, 100 complete control)
Summary of the method: as §2

[13] = test system: ragweed (common ragweed, Ambrosia elatior); test: Test B pre-/postemergence plant response
Summary of the method: as §2

[14] = Preemergence, 125 g ai/ha, 0 to 100 scale
[15] = 31 g ai/ha, scale 0 to 100 (0 no effect, 100 complete control)
[16] = 62 g ai/ha, scale 0 to 100, 0 no effect, 100 complete control

For `Cc1c(F)cccc1-n1c(-c2ccccc2)ncc(C(=O)C2=C(O)CCCC2=O)c1=O` [Compound 47, 3-(3-fluoro-2-methylphenyl)-5-[(2-hydroxy-6-oxo-1-cyclohexen-1-yl)carbonyl]-2-phenyl-4(3H)-pyrimidinone], the pest or weed control at 125 g/ha [1] was 80%, the pest or weed control at 31 g/ha ([2]; Phalaris minor, post-emergence, 360 h, 31 g ai/ha, scale 0 to 100 (0 no effect, 100 complete control), read-out: Plant response rating, Canarygrass) was 20% and the pest or weed control at 62 g/ha ([2]; Phalaris minor, post-emergence, 360 h, 62 g ai/ha, scale 0 (no effect) to 100 (complete control), 13 to 15 days, read-out: Plant response rating, Canarygrass) was 30%. The pest or weed control at 125 g/ha ([2]; Phalaris minor, post-emergence, 360 h, 125 g ai/ha, visual rating after 13 to 15 days, scale 0 (no effect) to 100 (complete control)) was 40%, the “Canarygrass plant response rating” value ([2]; 250 g ai/ha, scale 0 to 100) was 40 and the plant injury at 31 g/ha ([3]; Hordeum vulgare, post-emergence, 31 g ai/ha, scale 0 to 100 (0 no effect, 100 complete control), read-out: Plant response rating, Barley) was 5%. The plant injury at 62 g/ha ([3]; Hordeum vulgare, post-emergence, 62 g ai/ha, scale 0 (no effect) to 100 (complete control), 13 to 15 days, read-out: Plant response rating, Barley) was 10%, the plant injury at 125 g/ha ([3]; Hordeum vulgare, post-emergence, 125 g ai/ha, visual rating after 13 to 15 days, scale 0 (no effect) to 100 (complete control)) was 10% and the “Barley plant response rating” value ([3]; 250 g ai/ha, scale 0 to 100) was 35. The “Chickweed plant response rating” value ([4]; 250 g ai/ha, scale 0 to 100) was 100, the pest or weed control at 31 g/ha ([4]; Stellaria media, post-emergence, 360 h, 31 g ai/ha, scale 0 to 100 (0 no effect, 100 complete control), read-out: Plant response rating, Chickweed) was 85% and the pest or weed control at 62 g/ha ([4]; Stellaria media, post-emergence, 360 h, 62 g ai/ha, scale 0 (no effect) to 100 (complete control), 13 to 15 days, read-out: Plant response rating, Chickweed) was 98%. The pest or weed control at 125 g/ha ([4]; Stellaria media, post-emergence, 360 h, 125 g ai/ha, visual rating after 13 to 15 days, scale 0 (no effect) to 100 (complete control)) was 100%, the pest or weed control at 62 g/ha ([5]; Chenopodium album, post-emergence, Postemergence, scale 0 (no effect) to 100 (complete control), 13 to 15 days, read-out: Plant response rating, Lambsquarters) was 98% and the pest or weed control at 125 g/ha ([5]; Chenopodium album, post-emergence, Postemergence, 125 g ai/ha, visual rating after 13 to 15 days, scale 0 (no effect) to 100 (complete control)) was 98%. The pest or weed control at 250 g/ha ([5]; Chenopodium album, pre-emergence, 250 g ai/ha, Preemergence, 0 to 100 scale, read-out: Plant response rating, Lambsquarters) was 100%, the pest or weed control at 31 g/ha ([5]; Chenopodium album, pre-emergence, Preemergence, 31 g ai/ha, scale 0 to 100 (0 no effect, 100 complete control), read-out: Plant response rating, Lambsquarters) was 100% and the pest or weed control at 62 g/ha ([5]; Chenopodium album, pre-emergence, Preemergence, scale 0 to 100, 0 no effect, 100 complete control, read-out: Plant response rating, Lambsquarters) was 100%. For the same molecule, the “Lambsquarters plant response rating” value ([5]; Postemergence, 250 g ai/ha, scale 0 to 100) was 100, the “Lambsquarters plant response rating” value [5, 14] was 100 and the pest or weed control at 62 g/ha ([6]; Amaranthus retroflexus, post-emergence, Postemergence, 62 g ai/ha, scale 0 (no effect) to 100 (complete control), 13 to 15 days, read-out: Plant response rating, Pigweed) was 98%. It also gave a pest or weed control at 125 g/ha ([6]; Amaranthus retroflexus, post-emergence, Postemergence, 125 g ai/ha, visual rating after 13 to 15 days, scale 0 (no effect) to 100 (complete control)) of 100%, a pest or weed control at 250 g/ha ([6]; Amaranthus retroflexus, pre-emergence, 250 g ai/ha, Preemergence, 0 to 100 scale, read-out: Plant response rating, Pigweed) of 100% and a pest or weed control at 31 g/ha ([6]; Amaranthus retroflexus, pre-emergence, Preemergence, 31 g ai/ha, scale 0 to 100 (0 no effect, 100 complete control), read-out: Plant response rating, Pigweed) of 98%. The “Pigweed plant response rating” value [6, 14] was 100, the “Wheat plant response rating” value [7, 14] was 0 and the plant injury at 62 g/ha ([7]; Triticum aestivum, post-emergence, Postemergence, 62 g ai/ha, scale 0 (no effect) to 100 (complete control), 13 to 15 days, read-out: Plant response rating, Wheat) was 0%. It also gave a plant injury at 125 g/ha ([7]; Triticum aestivum, post-emergence, Postemergence, 125 g ai/ha, visual rating after 13 to 15 days, scale 0 (no effect) to 100 (complete control)) of 5%, a plant injury at 250 g/ha ([7]; Triticum aestivum, pre-emergence, 250 g ai/ha, Preemergence, 0 to 100 scale, read-out: Plant response rating, Wheat) of 0% and a plant injury at 31 g/ha ([7]; Triticum aestivum, pre-emergence, Preemergence, 31 g ai/ha, scale 0 to 100 (0 no effect, 100 complete control), read-out: Plant response rating, Wheat) of 0%. The “Plant response rating, Galium” value ([8]; 250 g ai/ha, 0 to 100 scale) was 95, the “Plant response rating, Galium” value [8, 15] was 50 and the “Plant response rating, Galium” value [8, 16] was 50. The “Galium plant response rating” value ([8]; 125 g ai/ha, 0 to 100 scale) was 50, the “Plant response rating, Sunflower” value ([9]; 250 g ai/ha, 0 to 100 scale) was 85 and the “Plant response rating, Sunflower” value [9, 15] was 65. The “Sunflower plant response rating” value ([9]; 125 g ai/ha, 0 to 100 scale) was 80, the pest or weed control at 62 g/ha ([10]; Lolium multiflorum, post-emergence, Postemergence, 62 g ai/ha, scale 0 (no effect) to 100 (complete control), 13 to 15 days, read-out: Plant response rating, Ryegrass, Italian) was 30% and the pest or weed control at 125 g/ha ([10]; Lolium multiflorum, post-emergence, Postemergence, 125 g ai/ha, visual rating after 13 to 15 days, scale 0 (no effect) to 100 (complete control)) was 30%. The pest or weed control at 250 g/ha ([10]; Lolium multiflorum, pre-emergence, 250 g ai/ha, Preemergence, 0 to 100 scale, read-out: Plant response rating, Ryegrass, Italian) was 0%, the pest or weed control at 31 g/ha ([10]; Lolium multiflorum, pre-emergence, Preemergence, 31 g ai/ha, scale 0 to 100 (0 no effect, 100 complete control), read-out: Plant response rating, Ryegrass, Italian) was 0% and the “Ryegrass, Italian plant response rating” value [10, 14] was 0. For the same molecule, the “Plant response rating, Nightshade” value ([11]; 250 g ai/ha, 0 to 100 scale) was 100, the “Plant response rating, Nightshade” value [11, 15] was 100 and the “Plant response rating, Nightshade” value [11, 16] was 100. The “Nightshade plant response rating” value ([11]; 125 g ai/ha, 0 to 100 scale) was 100, the pest or weed control at 31 g/ha ([12]; Cynodon dactylon, post-emergence, Postemergence, read-out: Plant response rating, Bermudagrass) was 85% and the pest or weed control at 125 g/ha ([12]; Cynodon dactylon, post-emergence, Postemergence, 125 g ai/ha, visual rating after 13 to 15 days, scale 0 (no effect) to 100 (complete control)) was 98%. For the same molecule, the pest or weed control at 250 g/ha ([12]; Cynodon dactylon, pre-emergence, 250 g ai/ha, Preemergence, 0 to 100 scale, read-out: Plant response rating, Bermudagrass) was 100%, the pest or weed control at 31 g/ha ([12]; Cynodon dactylon, pre-emergence, Preemergence, read-out: Plant response rating, Bermudagrass) was 100% and the pest or weed control at 62 g/ha ([12]; Cynodon dactylon, pre-emergence, Preemergence, 62 g ai/ha, scale 0 to 100, 0 no effect, 100 complete control, read-out: Plant response rating, Bermudagrass) was 100%. For the same molecule, the “Bermudagrass plant response rating” value [12, 14] was 100, the pest or weed control at 62 g/ha ([13]; Ambrosia artemisiifolia, post-emergence, 360 h, Postemergence, 62 g ai/ha, scale 0 (no effect) to 100 (complete control), 13 to 15 days, read-out: Plant response rating, Ragweed) was 90% and the pest or weed control at 125 g/ha ([13]; Ambrosia artemisiifolia, post-emergence, 360 h, Postemergence, 125 g ai/ha, visual rating after 13 to 15 days, scale 0 (no effect) to 100 (complete control)) was 95%. For the same molecule, the pest or weed control at 250 g/ha ([13]; Ambrosia artemisiifolia, pre-emergence, 360 h, 250 g ai/ha, Preemergence, 0 to 100 scale, read-out: Plant response rating, Ragweed) was 95%, the pest or weed control at 31 g/ha ([13]; Ambrosia artemisiifolia, pre-emergence, 360 h, Preemergence, 31 g ai/ha, scale 0 to 100 (0 no effect, 100 complete control), read-out: Plant response rating, Ragweed) was 45% and the “Ragweed plant response rating” value [13, 14] was 90.
